PMC10763615, “Identification and engineering of potent cyclic peptides with selective or promiscuous binding through biochemical profiling and bioinformatic data analysis” (RSC Chemical Biology, 2023)
Like-named read-outs stand apart in the source and are kept apart here.

Key:
[1] = target: T1, FGF-R4 ECD (Homo sapiens, UniProt P22455); test: single concentration BLI of crude peptides; type: binding; settings: crude NNK peptides, single concentration BLI (Table S3); read-out: KD (4)
T1 construct: DNA constructs for the extracellular domain (ECD) of human FGF-; HPC4 (C); made in house; host or cells: HEK 293-6E
T1 sequence (P22455 22-369 limits assumed): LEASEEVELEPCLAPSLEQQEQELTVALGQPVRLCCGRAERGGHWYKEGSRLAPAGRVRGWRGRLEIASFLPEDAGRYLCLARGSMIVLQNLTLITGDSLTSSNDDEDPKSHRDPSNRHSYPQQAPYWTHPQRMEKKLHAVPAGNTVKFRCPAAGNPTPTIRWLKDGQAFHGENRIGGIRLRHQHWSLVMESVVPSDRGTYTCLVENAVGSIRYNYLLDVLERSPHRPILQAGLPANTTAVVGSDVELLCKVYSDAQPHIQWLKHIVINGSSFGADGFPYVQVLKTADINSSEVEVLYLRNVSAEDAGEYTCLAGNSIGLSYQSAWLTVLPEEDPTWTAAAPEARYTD
Method in brief: (§1)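 BLI, streptavidin sensors loaded with biotinylated receptor ECD. Single-point: ~1 μM crude peptide, PBS pH7.4/0.05% Tween-20/0.01% BSA; association then dissociation in buffer. KD corrected for UPLC-CAD-determined concentration.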

[2] = target: T2, FGFR3c/BKL (Fc-fused human FGF-R3alpha(IIIc) with beta-klotho) (Homo sapiens, UniProt P22607); test: AlphaScreen FGF21 competitive binding assay
T2 sequence (P22607 23-375 limits assumed): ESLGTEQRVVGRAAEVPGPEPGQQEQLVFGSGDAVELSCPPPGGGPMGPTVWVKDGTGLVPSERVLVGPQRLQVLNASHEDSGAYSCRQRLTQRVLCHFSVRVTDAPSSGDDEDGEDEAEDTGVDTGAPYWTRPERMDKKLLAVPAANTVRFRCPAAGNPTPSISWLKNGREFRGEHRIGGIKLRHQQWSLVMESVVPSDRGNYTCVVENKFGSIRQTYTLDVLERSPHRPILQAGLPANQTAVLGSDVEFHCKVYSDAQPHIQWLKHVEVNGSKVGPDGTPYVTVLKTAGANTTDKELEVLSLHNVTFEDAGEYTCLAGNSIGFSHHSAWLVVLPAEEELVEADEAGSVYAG

[3] = target: T3, FGF-R1C ECD (Homo sapiens, UniProt P11362); test: biochemical; type: binding; design: DNA constructs for the extracellular domain (ECD) of human FGF-; HPC4 (C); made in house; host or cells: HEK 293-6E
T3 sequence (P11362 22-376 limits assumed): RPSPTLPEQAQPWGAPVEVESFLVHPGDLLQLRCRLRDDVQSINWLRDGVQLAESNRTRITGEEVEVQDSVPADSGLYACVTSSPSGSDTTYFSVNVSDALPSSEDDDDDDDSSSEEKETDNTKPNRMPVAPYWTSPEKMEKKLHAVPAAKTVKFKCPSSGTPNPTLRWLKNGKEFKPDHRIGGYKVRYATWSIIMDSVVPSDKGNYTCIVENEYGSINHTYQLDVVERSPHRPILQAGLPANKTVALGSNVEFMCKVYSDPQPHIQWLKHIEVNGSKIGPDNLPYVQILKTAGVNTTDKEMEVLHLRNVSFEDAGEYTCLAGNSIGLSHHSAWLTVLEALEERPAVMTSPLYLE
Method in brief: as §1

[4] = target: T4, FGF-R3C ECD (Homo sapiens, UniProt P22607); test: biochemical; type: binding; design: DNA constructs for the extracellular domain (ECD) of human FGF-; HPC4 (C); made in house; host or cells: HEK 293-6E
T4 sequence (P22607 23-375 limits assumed): T2 sequence (P22607 23-375 limits assumed)
Method in brief: as §1

[5] = target: T5, FGFR1c/KLB (Fc-fused human FGF-R1alpha(IIIc) with beta-klotho) (Homo sapiens, UniProt P11362); test: AlphaScreen FGF21 competitive binding assay
T5 sequence (P11362 22-376 limits assumed): T3 sequence (P11362 22-376 limits assumed)
Protocol: Alphascreen binding assay
The competitive binding assay was carried out according to the methods detailed in Hansen. et al using
AlphaScreen.3 All reagents and samples were prepared in assay buffer: 40mM Hepes, 140mM NaCl, 1mM
CaCl2, 0,05% Tween20, pH=7.5, 0.1% BSA. In brief, recombinant human beta-klotho (R&D Systems) was
preincubated for 60 min with the ectodomain, either Fc-fused human FGF-R1alpha(IIIc), FGF-R3alpha(IIIc)
or FGF-R4 (R&D Systems), and the mixture was added to the test peptides in OptiPlate™ (PerkinElmer).
Biotinylated FGF21 and heparin were further added to each well. AlphaScreen bead mix (1:1 mix of Protein
A acceptor beads/ streptavidin-coated donor beads, PerkinElmer) were added to each well incubated
overnight at RT in the dark, and measured on a plate reader (Envision). Assays were carried out in triplicates
with concentrations ranging from 3, 10, 30, 100, 300 ,1000 and 3000 nM of peptide. No peptide control
(media only) was used as a negative control, and unlabeled FGF21 and FGF1 as positive control.
competing with biotinylated natural FGF21 ligand.

[6] = target: T6, FGFR4/KLB (Fc-fused human FGF-R4 with beta-klotho) (Homo sapiens, UniProt P22455); test: AlphaScreen FGF21 competitive binding assay
T6 sequence (P22455 22-369 limits assumed): T1 sequence (P22455 22-369 limits assumed)

[7] = target: T3, FGF-R1C ECD; test: biochemical
Method in brief: (§2)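 Biolayer interferometry with biotinylated FGF-R ECD on streptavidin biosensors in PBS pH 7.4, 0.05% Tween-20, 0.01% BSA. Multi-concentration: purified peptide dilution series fitted to a multi-point KD model.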

[8] = target: T4, FGF-R3C ECD; test: biochemical
Method in brief: as §2

[9] = target: T1, FGF-R4 ECD; test: multi-concentration BLI of purified peptides; type: binding; settings: purified NNK library peptides
Method in brief: as §2

Row | Structure (SMILES) | Kd [1] [nM] | IC50 [2] [nM] | Kd [3] [nM] | Kd [4] [nM] | IC50 [5] [nM] | IC50 [6] [nM] | Kd [7] [nM] | Kd [8] [nM] | Kd [9] [nM]
1 | CSCC[C@H](N)C(=O)N[C@H]1CSSC[C@@H](C(=O)NCC(=O)N[C@@H](CO)C(=O)NCC(=O)N[C@@H](CO)C(=O)N[C@@H](CC(=O)O)C(=O)N[C@@H](Cc2ccc(O)cc2)C(=O)N[C@@H](CCCCN)C(=O)N[C@@H](CC(=O)O)C(=O)N[C@@H](CC(=O)O)C(=O)N[C@@H](CC(=O)O)C(=O)N[C@@H](CC(=O)O)C(=O)N[C@@H](CCCCN)C(N)=O)NC(=O)[C@H](C(C)C)NC(=O)[C@H](Cc2c[nH]c3ccccc23)NC(=O)[C@H](Cc2ccc(O)cc2)NC(=O)[C@H](CCCNC(=N)N)NC(=O)[C@H](CC(=O)O)NC(=O)[C@H](Cc2ccccc2)NC(=O)[C@H](Cc2c[nH]cn2)NC(=O)[C@H](CCCNC(=N)N)NC(=O)[C@H]([C@@H](C)O)NC(=O)[C@H](Cc2c[nH]c3ccccc23)NC(=O)[C@H](CC(C)C)NC(=O)[C@H](CC(C)C)NC1=O [1C.2] | > 10000 | > 1000 | 95 | > 10000 | 108 | > 1000 | 64 | > 1000 | > 1000
2 | CC[C@H](C)[C@@H]1NC(=O)[C@@H](NC(=O)[C@H](CCSC)NC(C)=O)CSSC[C@@H](C(=O)NCC(=O)N[C@@H](CO)C(=O)NCC(=O)N[C@@H](CO)C(=O)N[C@@H](CC(=O)O)C(=O)N[C@@H](Cc2ccc(O)cc2)C(=O)N[C@@H](CCCCN)C(=O)N[C@@H](CC(=O)O)C(=O)N[C@@H](CC(=O)O)C(=O)N[C@@H](CC(=O)O)C(=O)N[C@@H](CC(=O)O)C(=O)N[C@@H](CCCCN)C(N)=O)NC(=O)[C@H](C(C)C)NC(=O)[C@H](C(C)C)NC(=O)[C@H](Cc2c[nH]c3ccccc23)NC(=O)[C@H](Cc2ccccc2)NC(=O)[C@H](CC(=O)O)NC(=O)[C@H](CO)NC(=O)[C@H](CC(C)C)NC(=O)[C@H](CCCNC(=N)N)NC(=O)[C@H](Cc2ccc(O)cc2)NC1=O [1C.6] | 47 | 18 | 19 | 12 | 29 | 60 | 53 | 361 | 70
3 | CC[C@H](C)[C@@H]1NC(=O)[C@@H](NC(=O)[C@H](CCSC)NC(C)=O)CSSC[C@@H](C(=O)NCC(=O)N[C@@H](CO)C(=O)NCC(=O)N[C@@H](CO)C(=O)N[C@@H](CC(=O)O)C(=O)N[C@@H](Cc2ccc(O)cc2)C(=O)N[C@@H](CCCCN)C(=O)N[C@@H](CC(=O)O)C(=O)N[C@@H](CC(=O)O)C(=O)N[C@@H](CC(=O)O)C(=O)N[C@@H](CC(=O)O)C(=O)N[C@@H](CCCCN)C(N)=O)NC(=O)[C@H](CCC(=O)O)NC(=O)[C@H](C(C)C)NC(=O)[C@H](Cc2c[nH]c3ccccc23)NC(=O)[C@H](Cc2ccccc2)NC(=O)[C@H](CC(=O)O)NC(=O)[C@H](CO)NC(=O)[C@H](CC(C)C)NC(=O)[C@H](CCCNC(=N)N)NC(=O)[C@H](Cc2ccc(O)cc2)NC1=O [1C.7] | 45 | 631 | 47 | 281 | 473 | 406 | > 1000 | > 1000 | > 1000
4 | CC[C@H](C)[C@@H]1NC(=O)[C@@H]2CCCN2C(=O)[C@H](Cc2ccccc2)NC(=O)[C@@H]2CCCN2C(=O)[C@H](Cc2c[nH]c3ccccc23)NC(=O)[C@@H]2CCCN2C(=O)[C@H](Cc2ccccc2)NC(=O)[C@H](CCCCN)NC(=O)[C@H]([C@@H](C)O)NC(=O)[C@@H](NC(=O)[C@@H](N)CCSC)CSSC[C@@H](C(=O)NCC(=O)N[C@@H](CO)C(=O)NCC(=O)N[C@@H](CO)C(=O)N[C@@H](CC(=O)O)C(=O)N[C@@H](Cc2ccc(O)cc2)C(=O)N[C@@H](CCCCN)C(=O)N[C@@H](CC(=O)O)C(=O)N[C@@H](CC(=O)O)C(=O)N[C@@H](CC(=O)O)C(=O)N[C@@H](CC(=O)O)C(=O)N[C@@H](CCCCN)C(N)=O)NC(=O)[C@H](C)NC(=O)[C@H](Cc2c[nH]c3ccccc23)NC(=O)[C@H](Cc2ccccc2)NC1=O [1C.8] | 70 | > 1000 | 155 | 47 | 112 | 431 | 323 | > 1000 | 464
5 | CC[C@H](C)[C@@H]1NC(=O)[C@@H](NC(=O)[C@@H](N)CCSC)CSSC[C@@H](C(=O)NCC(=O)N[C@@H](CO)C(=O)NCC(=O)N[C@@H](CO)C(=O)N[C@@H](CC(=O)O)C(=O)N[C@@H](Cc2ccc(O)cc2)C(=O)N[C@@H](CCCCN)C(=O)N[C@@H](CC(=O)O)C(=O)N[C@@H](CC(=O)O)C(=O)N[C@@H](CC(=O)O)C(=O)N[C@@H](CC(=O)O)C(=O)N[C@@H](CCCCN)C(N)=O)NC(=O)[C@H](CC(C)C)NC(=O)[C@H](Cc2c[nH]c3ccccc23)NC(=O)[C@H](Cc2ccccc2)NC(=O)[C@H](CC(C)C)NC(=O)[C@@H]2CCCN2C(=O)[C@H](CCC(N)=O)NC(=O)[C@H](CCCNC(=N)N)NC(=O)[C@H](C)NC(=O)[C@@H]2CCCN2C(=O)[C@H](Cc2c[nH]c3ccccc23)NC(=O)[C@H](CCCNC(=N)N)NC1=O [1C.9] | 82 | 15 | 19 | 112 | 17 | 67 | 1 | 47 | 82
6 | CSCC[C@H](N)C(=O)N[C@H]1CSSC[C@@H](C(=O)NCC(=O)N[C@@H](CO)C(=O)NCC(=O)N[C@@H](CO)C(=O)N[C@@H](CC(=O)O)C(=O)N[C@@H](Cc2ccc(O)cc2)C(=O)N[C@@H](CCCCN)C(=O)N[C@@H](CC(=O)O)C(=O)N[C@@H](CC(=O)O)C(=O)N[C@@H](CC(=O)O)C(=O)N[C@@H](CC(=O)O)C(=O)N[C@@H](CCCCN)C(N)=O)NC(=O)[C@H](Cc2ccccc2)NC(=O)[C@@H]2CCCN2C(=O)[C@H]([C@@H](C)O)NC(=O)[C@H](CC(C)C)NC(=O)[C@H](Cc2c[nH]cn2)NC(=O)[C@H](Cc2c[nH]cn2)NC(=O)[C@H](Cc2ccccc2)NC(=O)[C@H](CC(C)C)NC(=O)[C@H](CCCNC(=N)N)NC(=O)[C@H](Cc2c[nH]c3ccccc23)NC(=O)[C@H](CCCNC(=N)N)NC(=O)[C@H](Cc2ccccc2)NC1=O [1C.10] | 79 | > 1000 | 50 | > 10000 | 84 | 283 | 101 | > 1000 | 73
